Experiments:
OIR mice = assay: Oxygen-induced retinopathy (OIR) mouse model, NV and VO areas on retinal flat mounts; format: in vivo
Description: OIR was carried out using neonatal mice as described previously (Smith et al., 1994). Briefly, mouse pups with nursing female mice were exposed to 75% oxygen from postnatal day (P) 7 to 12, then returned to room air until to P17 for phenotypical analysis and gene expression at indicated time. For phenotypical analysis, the retinas were collected at P17, dissected, and stained with fluorescent dye conjugated-Griffonia Simplicifolia Isolectin IB4 (Invitrogen) overnight and flat-mounted. The avascular (vasoobliteration, VO) and pathological neovascularization (NV) areas were quantified (Connor et al., 2009) by masked researchers using Image J (National Institutes of Health, imagej.nih.gov/ij/) and Adobe Photoshop (Adobe Systems). The exclusion criteria for the OIR mouse model was used as described previously. Mice with bodyweight less than 5 grams at P17 were excluded from the study (Stahl et al., 2010).
OIR was carried out using neonatal mice as described previously^81. Briefly, mouse pups with nursing female mice were exposed to 75% oxygen from postnatal day (P) 7 to 12, then returned to room air until P17 for phenotypical analysis and gene expression analysis at indicated times. For phenotypical analysis, the retinas were collected at P17, dissected, and stained with fluorescent dye conjugated with Griffonia Simplicifolia Isolectin IB4 (Invitrogen) overnight and flat-mounted. The avascular (vaso-obliteration, VO) and pathological NV areas were quantified^82 by masked researchers using Image J (National Institutes of Health) and fully automated deep learning segmentation method^83. The exclusion criteria for the OIR mouse model were used as previously described^84.
SOCS3 agonist, naringenin (400 mg/kg/day, gavage) 49, and control reagents were administrated to C57BL/6J OIR mice from P12 to P16. SOCS3 peptidomimetic and negative control (NC) peptides were synthesized and purified as described 74. […] The identity and purity of main products were evaluated by LC-MS and purified compounds were lyophilized and stored at −20° C. until use. […]

laser-induced CNV mice = conditions: previously reported (ref 49), vs control treatment; cited from earlier work
SOCS3 = conditions: reported (refs 56, 57, 49); cited from earlier work

In the case of `O=C1C[C@@H](c2ccc(O)cc2)Oc2cc(O)cc(O)c21` [naringenin], the “effect on retinal neovascularization (NV), in words” value (OIR mice; OIR retinas at P17, vs control treatment) is reported as “significantly reduced NV”, the “effect on vaso-obliteration (VO) / blood vessel loss, in words” value (OIR mice; OIR retinas, vs control treatment) is reported as “without influencing VO” and the “reduction of NV at P17 compared to controls” value (OIR mice; naringenin treatment from P12 to P16, 400 mg/kg/day, C57BL/6J OIR mice) is reported as “about 50%”. For the same molecule, the “effect on laser-induced CNV, in words” value (laser-induced CNV mice) was “significantly suppresses laser-induced CNV” and the “SOCS3 expression, in words” value (SOCS3) was “induces SOCS3 expression”.

From patent US20250289879A1, “THERAPEUTIC MODULATION OF GENES IN MYELOID LINEAGE CELLS AND USES THEREOF IN OPHTHALMOLOGY” (The Children's Medical Center Corporation, priority 2022, published 2025)
